This note sets out measurements from ChEMBL document CHEMBL1143249, “N-alkyl-4-piperidinyl-2,3-diarylpyrrole derivatives with heterocyclic substitutions as potent and broad spectrum anticoccidial agents” (Bioorg Med Chem Lett, 2008).

Activity calls are given as the source filed them. No cut-off for these calls is given here.

The target in assay [1] is cGMP-dependent protein kinase (Eimeria tenella, UniProt Q8MMZ8). The assay can be described thus: Inhibition of Eimeria tenella cGMP-dependent protein kinase.
The test system of assay [2] is Eimeria tenella. In words: Anticoccidial activity against Eimeria tenella in chick assessed as reduction in oocyst at 100 ppm, po after 6 days. The assay is classed as functional. More on the design: scale not given: the % may be the effect or the level left.
Assay [3] concerns Eimeria acervulina. The assay can be described thus: Anticoccidial activity against Eimeria acervulina in chick assessed as reduction in oocyst at 100 ppm, po after 5 days. Also on record: scale not given: the % may be the effect or the level left. The assay is classed as functional.
Assay [4] has as its system Eimeria tenella. The assay can be described thus: Anticoccidial activity against Eimeria tenella in chick assessed as reduction in oocyst at 50 ppm, po after 6 days. The assay is classed as functional, organism-based.
The subject of assay [5] is Eimeria acervulina. The assay can be described thus: Anticoccidial activity against Eimeria acervulina in chick assessed as reduction in oocyst at 50 ppm, po after 5 days. The assay is classed as functional, organism-based.

cGMP-dependent protein kinase, sequence (Q8MMZ8 whole entry): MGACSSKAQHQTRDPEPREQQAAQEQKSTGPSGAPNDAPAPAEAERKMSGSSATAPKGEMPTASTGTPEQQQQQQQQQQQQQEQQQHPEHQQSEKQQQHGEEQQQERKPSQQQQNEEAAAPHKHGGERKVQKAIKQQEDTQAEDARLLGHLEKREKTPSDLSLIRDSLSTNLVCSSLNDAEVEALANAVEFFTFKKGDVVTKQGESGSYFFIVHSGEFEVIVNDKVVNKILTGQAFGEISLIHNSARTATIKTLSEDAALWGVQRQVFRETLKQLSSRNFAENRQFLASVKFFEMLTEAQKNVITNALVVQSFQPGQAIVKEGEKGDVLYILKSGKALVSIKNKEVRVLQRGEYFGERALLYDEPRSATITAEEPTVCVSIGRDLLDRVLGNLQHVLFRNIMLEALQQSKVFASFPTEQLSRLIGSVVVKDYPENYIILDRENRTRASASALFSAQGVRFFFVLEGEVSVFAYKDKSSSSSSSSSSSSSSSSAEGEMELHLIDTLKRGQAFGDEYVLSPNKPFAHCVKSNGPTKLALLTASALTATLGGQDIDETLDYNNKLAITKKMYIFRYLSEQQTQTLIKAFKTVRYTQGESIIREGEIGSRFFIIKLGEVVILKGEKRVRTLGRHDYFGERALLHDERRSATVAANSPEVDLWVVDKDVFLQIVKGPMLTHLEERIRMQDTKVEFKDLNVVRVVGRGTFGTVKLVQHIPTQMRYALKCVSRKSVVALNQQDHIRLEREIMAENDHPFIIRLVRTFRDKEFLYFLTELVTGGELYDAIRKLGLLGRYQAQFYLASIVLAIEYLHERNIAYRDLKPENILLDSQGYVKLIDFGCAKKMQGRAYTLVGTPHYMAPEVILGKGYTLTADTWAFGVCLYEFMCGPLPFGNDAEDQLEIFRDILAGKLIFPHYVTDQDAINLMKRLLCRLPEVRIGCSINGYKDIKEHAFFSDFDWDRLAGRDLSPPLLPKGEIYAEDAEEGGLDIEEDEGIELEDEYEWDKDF

For `CN1CC[C@H]1CN1CCC(c2cc(-c3ccncc3)c(-c3ccc(F)cc3)[nH]2)CC1`, the IC50 (commonly the point on the concentration scale where inhibition reaches its midpoint) in assay [1] is 0.28 nM. The Activity in the assay on Eimeria tenella [2] and with Eimeria acervulina [3] was 80% in each case.

Take `CN1CCOC(CN2CCC(c3cc(-c4ccncc4)c(-c4ccc(F)cc4)[nH]3)CC2)C1` (stereo unspecified): in assay [1], the IC50 was 0.67 nM. Further, the Activity with Eimeria tenella [2] and with Eimeria acervulina [3] was 80% in each case. Further, the outcome in the assay on Eimeria tenella [4] and in the assay with Eimeria acervulina [5] was Active.

Turning to `CC(=O)N1CCN(C(C)=O)C(CN2CCC(c3cc(-c4ccncc4)c(-c4ccc(F)cc4)[nH]3)CC2)C1` (stereo unspecified), the half-maximal inhibitory concentration (IC50) in assay [1] came out at 2.2 nM. Moreover, the result with Eimeria tenella [2] and with Eimeria acervulina [3] was inactive.

Take `CN1CCN(C)C(CN2CCC(c3cc(-c4ccncc4)c(-c4ccc(F)cc4)[nH]3)CC2)C1` (stereo unspecified): the IC50 in assay [1] was 1.08 nM. The Activity in the assay on Eimeria tenella [2] and in the assay on Eimeria acervulina [3] was 50% in each case.

In assay [1], `CC(=O)N1C[C@H](O)C[C@H]1CN1CCC(c2cc(-c3ccncc3)c(-c3ccc(F)cc3)[nH]2)CC1` registered an IC50 of 2.2 nM. Further, the figures for the Activity in the assay with Eimeria tenella [2] and with Eimeria acervulina [3] were 80% and 50%, respectively.

Regarding `O[C@H]1CN[C@H](CN2CCC(c3cc(-c4ccncc4)c(-c4ccc(F)cc4)[nH]3)CC2)C1`, 0.16 nM corresponded to half-maximal inhibition in assay [1] (IC50). Further, the Activity in the assay on Eimeria tenella [2] worked out at 80%; with Eimeria acervulina [3], 50%.

Consider `COC(=O)N1CCOC(C(=O)N2CCC(c3cc(-c4ccncc4)c(-c4ccc(F)cc4)[nH]3)CC2)C1` (stereo unspecified), for which the IC50 in assay [1] came out at 4.7 nM. Also, the Activity in the assay with Eimeria tenella [2] and in the assay with Eimeria acervulina [3] was 50% each time.

In assay [1], `CN1C[C@H](O)C[C@H]1CN1CCC(c2cc(-c3ccncc3)c(-c3ccc(F)cc3)[nH]2)CC1` showed a 50% inhibitory concentration (IC50) of 0.34 nM. In addition, the Activity in the assay with Eimeria tenella [2] came to 80%; with Eimeria acervulina [3], 50%.

As to `CC(CN1CCC1)N1CCC(c2cc(-c3ccncc3)c(-c3ccc(F)cc3)[nH]2)CC1` (stereo unspecified), the 50% inhibitory concentration (IC50) in assay [1] was found to be 0.4 nM. The Activity with Eimeria tenella [2] and in the assay with Eimeria acervulina [3] was 80% throughout.

With `Fc1ccc(-c2[nH]c(C3CCN(CCN4CCC4)CC3)cc2-c2ccncc2)cc1`, the midpoint of inhibition in assay [1], the IC50, lay at 0.08 nM. Moreover, the Activity in the assay on Eimeria tenella [2] and with Eimeria acervulina [3] was 80% throughout.

In turn, `O=C(C1CNCCO1)N1CCC(c2cc(-c3ccncc3)c(-c3ccc(F)cc3)[nH]2)CC1` (stereo unspecified) showed an IC50 in assay [1] of 0.27 nM. For the same compound, the Activity in the assay with Eimeria tenella [2] was 80%; with Eimeria acervulina [3], 50%.

`CCN1C[C@H](O)C[C@H]1CN1CCC(c2cc(-c3ccncc3)c(-c3ccc(F)cc3)[nH]2)CC1`: the 50% inhibitory concentration (IC50) in assay [1] came out at 0.36 nM. Also, the figures for the Activity in the assay on Eimeria tenella [2] and in the assay on Eimeria acervulina [3] were 80% and 50%, respectively.

The compound `Fc1ccc(-c2[nH]c(C3CCN(CC4CNCCO4)CC3)cc2-c2ccncc2)cc1` (stereo unspecified) had a 50% inhibitory concentration (IC50) in assay [1] of 0.17 nM. Further, the Activity in the assay on Eimeria tenella [2] is 80%; in the assay on Eimeria acervulina [3], 50%.

As for `COC(=O)N1CCOC(CN2CCC(c3cc(-c4ccncc4)c(-c4ccc(F)cc4)[nH]3)CC2)C1` (stereo unspecified), in assay [1], the midpoint of inhibition, the IC50, lay at 1.03 nM. Besides, the Activity in the assay with Eimeria tenella [2] was 80%; with Eimeria acervulina [3], 50%.

As to `OC[C@@H]1CCN1CCN1CCC(c2cc(-c3ccncc3)c(-c3ccc(F)cc3)[nH]2)CC1`, the concentration for half-maximal inhibition (IC50) in assay [1] is 1.7 nM. Besides, the Activity with Eimeria tenella [2] and in the assay on Eimeria acervulina [3] was 80% throughout.

In assay [1], `O=C(CN1CCC(c2cc(-c3ccncc3)c(-c3ccc(F)cc3)[nH]2)CC1)N1CCC1` came in with an IC50 of 1.01 nM. Further, the Activity with Eimeria tenella [2] and in the assay on Eimeria acervulina [3] was 80% in each case.

Regarding `Fc1ccc(-c2[nH]c(C3CCN(CC4CNCCN4)CC3)cc2-c2ccncc2)cc1` (stereo unspecified), the IC50 in assay [1] turned out to be 0.07 nM. In addition, the Activity with Eimeria tenella [2] amounted to 80%; with Eimeria acervulina [3], 50%.

Take `CS(=O)(=O)N1CCN(S(C)(=O)=O)C(CN2CCC(c3cc(-c4ccncc4)c(-c4ccc(F)cc4)[nH]3)CC2)C1` (stereo unspecified): the IC50 in assay [1] was 1.41 nM. Further, the result with Eimeria tenella [2] and in the assay with Eimeria acervulina [3] was inactive.
